The source of these data is US20220267352A1, “RAPAMYCIN ANALOGS AND USES THEREOF” (Anakuria Therapeutics, Inc., priority 2021, published 2022).

Assay type in all cases: cell-based
The test system of assay [1] is pS6K1 T389 and pAkt S473 in PC3 cells. As to the kind of experiment: Western blot based pS6K1 and pAKT assay at 24 and 48 hour timepoints. The method, then: Example 57: Western Blot Based pS6K1 and pAKT Assay at 24 and 48 Hour Timepoints
Assay Protocol: • 1. Seed six well plate with 500,000 PC3 cells per well and incubate for 20˜24 hour. • 2. Add compounds into the cell plate. Incubate for 24 to 48 hours. • 4. Plate is placed on ice and the media is removed via aspiration. The wells are washed with 1 mL of 1x PBS and then fully aspirated. • 5. 110 μL of 1% Triton Lysis Buffer is added and each well is scraped vigorously. • 6. Cell homogenates are transferred to 1.5 mL eppendorf tubes on ice and spun down at 4° C. for 10 minutes at 10,000 rpm. • 7. Protein concentration of resulting cell lysates were quantified utilizing a Bradford assay and the samples run analyzed via Western blot on 4-12% Bis/Tris gels with 1×MES buffer. • 8. The gels were transferred onto membranes at 50V for 100 minutes, blocked with Odyssey Blocking buffer for 30 minutes then incubated overnight with primary antibody (pS6K1 T389 Rabbit or pAkt S473 Rabbit) overnight at 4° C. on a rotator. • 9. The membranes were washed 3× with TBS-T with a 5 minute incubation between each wash then incubated with secondary antibody (LiCor IRDye 800 Donkey Anti Rabbit) for at least 30 minutes. • 10. The membranes were washed 3× with TBS-T with a 5 minute incubation between each wash. • 11. The gels were then incubated for 5 minutes with PBS at room temperature then imaged using a Li-Cor.
Compounds that are not selective by comparing pS6K1 and pAKT IC50 by kinase assays are indicated by “NO” in the “mTORC1 selective @ 90 min” column of Table 4. […] Compounds that are not selective at the 24 hrs mark are indicated by “NO” in the “mTORC1 selective @ 24 hrs” column of Table 4. “N/A” stands for “not assayed” and “N/C” stands for “not calculated”.
On the technique in general: In western blotting, separated proteins are transferred to a membrane and probed.

For assay [2], the system named is p-Akt 1/2/3 (Ser473) in MCF-7 cells. As to the kind of experiment: AlphaLISA Ultra pAKT assay. As to conditions: Homo sapiens, 1.5 h; MCF7 cells, 90 min. Put shortly:
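MCF-7 cells (16,000˜20,000 per well in 36 μL medium) were seeded in Corning 3701 plates for 20˜24 hour, refreshed with new medium for 90 minutes, then given 12 μL of 4× compound (0.5% final DMSO). Cells were lysed with 2× lysis buffer, and lysate was analyzed by AlphaLISA Ultra pAKT using acceptor and donor beads, read on an EnSpire reader.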

The test system of assay [3] is p-p70 S6 Kinase (Thr389) in MCF-7 cells. The experiment in a line: AlphaLISA Ultra pS6K1 assay. As to conditions: Homo sapiens, 1.5 h; MCF7 cells, 90 min. Put shortly: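 Phospho-S6K1 (Thr389) quantified by AlphaLISA Ultra read-out (2 h acceptor, then 2 h donor beads) in lysates of MCF-7 cells. Cells were plated 20–24 h before, refed 2 h, exposed to compounds for 90 min at 0.5% final DMSO, and lysates stored at −80 °C.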

Another assay has as its system mTORC1 over mTORC2. As to the kind of experiment: mTORC1 over mTORC2 selectivity by comparing pS6K1 and pAKT IC50. As to conditions: by comparing pS6K1 and pAKT IC50, 90 min. The method, boiled down: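 MCF-7 cells were treated with compounds (0.5% final DMSO) for 90 minutes in one protocol and 2 hours in the other, then lysed. Phospho-signal in lysates was read by bead-based donor/acceptor proximity assay. pS6K1 and pAKT IC50 values were compared to judge mTORC1 over mTORC2 selectivity, at 90 min and at 24 hrs.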

For the compound `CO[C@@H]1C[C@H](C[C@@H](C)[C@@H]2CC(=O)[C@H](C)/C=C(\C)[C@@H](O)[C@@H](OC)C(=O)[C@H](C)C[C@H](C)/C=C/C=C/C=C(\C)[C@@H](OCc3cnccn3)C[C@@H]3CC[C@@H](C)[C@@](O)(O3)C(=O)C(=O)N3CCCC[C@H]3C(=O)O2)CC[C@H]1OCCO` [I-59, (1R,9S,12S,15R,16E,18R,19R,21R,23S,24E,26E,28E,30S,32S,35R)-1,18-dihydroxy-12-[(1R)-2-[(1S,3R,4R)-4-(2-hydroxyethoxy)-3-methoxy-cyclohexyl]-1-methyl-ethyl]-19-methoxy-15,17,21,23,29,35-hexamethyl-30-(pyrazin-2-ylmethoxy)-11,36-dioxa-4-azatricyclo[30.3.1.0^4,9]hexatriaconta-16,24,26,28-tetraene-2,3,10,14,20-pentone], in assay [1], the “mTORC1 selective @ 24 hrs” value is recorded as “Yes”.

By IC50 is commonly meant the concentration that gives 50% inhibition. A high value points to weaker potency in that assay. On to `COCCO[C@@H]1CC[C@@H](C[C@@H](C)[C@@H]2CC(=O)[C@H](C)/C=C(\C)[C@@H](OC)[C@@H](OC)C(=O)[C@H](C)C[C@H](C)/C=C/C=C/C=C(\C)[C@H](OCCOC3COC3)C[C@@H]3CC[C@@H](C)[C@@](O)(O3)C(=O)C(=O)N3CCCC[C@H]3C(=O)O2)C[C@H]1OC` [I-82, (1R,9S,12S,15R,16E,18R,19R,21R,23S,24E,26E,28E,30R,32S,35R)-1-hydroxy-18,19-dimethoxy-12-[(1R)-2-[(1S,3R,4R)-3-methoxy-4-(2-methoxyethoxy)cyclohexyl]-1-methyl-ethyl]-15,17,21,23,29,35-hexamethyl-30-[2-(oxetan-3-yloxy)ethoxy]-11,36-dioxa-4-azatricyclo[30.3.1.0^4,9]hexatriaconta-16,24,26,28-tetraene-2,3,10,14,20-pentone], for which the IC50 was at least 1000 nM in assay [2] and 10 to 100 nM in assay [3]. Besides, the “mTORC1 selective @ 90 min” value in the assay on mTORC1 over mTORC2 is “Yes”.

For the compound `COCCS(=O)(=O)CCO[C@@H]1C[C@@H]2CC[C@@H](C)[C@@](O)(O2)C(=O)C(=O)N2CCCC[C@H]2C(=O)O[C@H]([C@H](C)C[C@@H]2CC[C@@H](OC)[C@H](OC)C2)CC(=O)[C@H](C)/C=C(\C)[C@@H](OC)[C@@H](OC)C(=O)[C@H](C)C[C@H](C)/C=C/C=C/C=C/1C` [I-42, (24E,26E,28E,29E,35R,36S,37R,38R,40S,42S,44R,45S,46R,47R,56R)-45-[(1R)-2-[(1S,3R,4R)-3,4-dimethoxycyclohexyl]-1-methyl-ethyl]-56-hydroxy-46,47-dimethoxy-44-[2-(2-methoxyethylsulfonyl)ethoxy]-35,36,37,38,48,49-hexamethyl-66,67-dioxa-57-azatricyclohexatriaconta-24,26,28(48),29(49)-tetraene-50,51,52,53,54-pentone], the IC50 in assay [2] was at least 1000 nM; in assay [3], 10 to 100 nM. In the assay with mTORC1 over mTORC2, the “mTORC1 selective @ 90 min” value is “Yes”.

On to `CO[C@@H]1C[C@H](C[C@@H](C)[C@@H]2CC(=O)[C@H](C)/C=C(\C)[C@@H](O)[C@@H](OC)C(=O)[C@H](C)C[C@H](C)/C=C/C=C/C=C(\C)[C@H](OCCOC3COC3)C[C@@H]3CC[C@@H](C)[C@@](O)(O3)C(=O)C(=O)N3CCCC[C@H]3C(=O)O2)CC[C@H]1OCCCN1CCOCC1` [I-13, (27E,29E,31E,32E,39R,40S,41R,42R,44S,46S,48R,49S,51R,52R,61R)-51,61-dihydroxy-52-methoxy-49-[(1R)-2-[(1S,3R,4R)-3-methoxy-4-(3-morpholinopropoxy)cyclohexyl]-1-methyl-ethyl]-39,40,41,42,53,54-hexamethyl-48-[2-(oxetan-3-yloxy)ethoxy]-73,74-dioxa-63-azatricyclohexatriaconta-27,29,31(53),32(54)-tetraene-55,56,57,58,59-pentone], for which the results for the IC50 in assay [2] and in assay [3] were at least 1000 nM and 1 to 10 nM, respectively. The “mTORC1 selective @ 90 min” value with mTORC1 over mTORC2 is recorded as “Yes”.

Regarding `CO[C@@H]1C[C@H](C[C@@H](C)[C@@H]2CC(=O)[C@H](C)/C=C(\C)[C@@H](O)[C@@H](OC)C(=O)[C@H](C)C[C@H](C)/C=C/C=C/C=C(\C)[C@@H](OCCOC3COC3)C[C@@H]3CC[C@@H](C)[C@@](O)(O3)C(=O)C(=O)N3CCCC[C@H]3C(=O)O2)CC[C@H]1OCCCN1C[C@@H](C)O[C@@H](C)C1` [I-101, (27E,29E,31E,32E,39R,40S,41R,44R,46S,48S,50S,51S,53R,54R,63R)-51-[(1R)-2-[(1S,3R,4R)-4-[3-[(2S,6R)-2,6-dimethylmorpholin-4-yl]propoxy]-3-methoxy-cyclohexyl]-1-methyl-ethyl]-53,63-dihydroxy-54-methoxy-39,40,41,44,55,56-hexamethyl-50-[2-(oxetan-3-yloxy)ethoxy]-75,76-dioxa-64-azatricyclohexatriaconta-27,29,31(55),32(56)-tetraene-57,58,59,60,61-pentone], the IC50 in assay [2] is at least 1000 nM; in assay [3], 10 to 100 nM. Further, the “mTORC1 selective @ 90 min” value with mTORC1 over mTORC2 is listed as “Yes”.

As to `CO[C@@H]1/C(C)=C/[C@@H](C)C(=O)C[C@@H]([C@H](C)C[C@@H]2CC[C@@H](OC)[C@H](OC)C2)OC(=O)[C@@H]2CCCCN2C(=O)C(=O)[C@]2(O)O[C@@H](CC[C@H]2C)CC(OCCOC2COC2)/C(C)=C/C=C/C=C/[C@@H](C)C[C@@H](C)C(=O)[C@@H]1OC` (stereo partly drawn) [I-50, (25E,27E,29E,30E,34R,35S,36R,37R,39S,41S,44S,46R,47R,56R)-44-[(1R)-2-[(1S,3R,4R)-3,4-dimethoxycyclohexyl]-1-methyl-ethyl]-56-hydroxy-46,47-dimethoxy-34,35,36,37,48,49-hexamethyl-43-[2-(oxetan-3-yloxy)ethoxy]-65,66-dioxa-57-azatricyclohexatriaconta-25,27,29(48),30(49)-tetraene-50,51,52,53,54-pentone], the results for the IC50 in assay [2] and in assay [3] were at least 1000 nM and 1 to 10 nM, respectively. In addition, in the assay on mTORC1 over mTORC2, the “mTORC1 selective @ 90 min” value was “Yes”.

For `CO[C@@H]1C[C@H](C[C@@H](C)[C@@H]2CC(=O)[C@H](C)/C=C(\C)[C@@H](O)[C@@H](OC)C(=O)[C@H](C)C[C@H](C)/C=C/C=C/C=C(\C)C(OCCOC3COC3)C[C@@H]3CC[C@@H](C)[C@@](O)(O3)C(=O)C(=O)N3CCCC[C@H]3C(=O)O2)CC[C@H]1O` (stereo partly drawn) [I-88, (23E,25E,27E,28E,32R,33S,34R,35R,37S,39S,41R,42S,44R,45R,54R)-44,54-dihydroxy-42-[(1R)-2-[(1S,3R,4R)-4-hydroxy-3-methoxy-cyclohexyl]-1-methyl-ethyl]-45-methoxy-32,33,34,35,46,47-hexamethyl-41-[2-(oxetan-3-yloxy)ethoxy]-65,66-dioxa-55-azatricyclohexatriaconta-23,25,27(46),28(47)-tetraene-48,49,50,51,52-pentone], the IC50 in assay [2] is at least 1000 nM; in assay [3], 1 to 10 nM. In the assay on mTORC1 over mTORC2, the “mTORC1 selective @ 90 min” value was “Yes”.

As to `COCCOCCO[C@@H]1C[C@@H]2CC[C@@H](C)[C@@](O)(O2)C(=O)C(=O)N2CCCC[C@H]2C(=O)O[C@H]([C@H](C)C[C@@H]2CC[C@@H](OP(C)(C)=O)[C@H](OC)C2)CC(=O)[C@H](C)/C=C(\C)[C@@H](OC)[C@@H](OC)C(=O)[C@H](C)C[C@H](C)/C=C/C=C/C=C/1C` [I-33, (25E,27E,29E,30E,36R,37S,38R,39R,41S,43S,45R,46S,47R,48R,57R)-46-[(1R)-2-[(1S,3R,4R)-4-dimethylphosphoryloxy-3-methoxy-cyclohexyl]-1-methyl-ethyl]-57-hydroxy-47,48-dimethoxy-45-[2-(2-methoxyethoxy)ethoxy]-36,37,38,39,49,50-hexamethyl-66,67-dioxa-58-azatricyclohexatriaconta-25,27,29(49),30(50)-tetraene-51,52,53,54,55-pentone], the values for the IC50 in assay [2] and in assay [3] were at least 1000 nM and 1 to 10 nM, respectively. Also, in the assay with mTORC1 over mTORC2, the “mTORC1 selective @ 90 min” value was “Yes”.
